Experimental data taken from paper PMC9993459, “A novel selective spleen tyrosine kinase inhibitor SKI-O-703 (cevidoplenib) ameliorates lupus nephritis and serum-induced arthritis in murine models” (Clinical and Experimental Immunology, 2022).
pIC50: −log10 of the molar value.

How the values were obtained:
KOR = assay: Kinase assay (LANCE Ultra TR-FRET), KOR; assay type: biochemical
Method: (§1) Kinase assays were conducted in 384-well plates using LANCE ultra 66 time-resolved fluorescence resonance energy transfer (TR-FRET) methods, according to the manufacturer’s instructions (Perkin-Elmer). In brief, each kinase was pre-incubated with a serially diluted compound for 30 min, incubated with ULight poly-GT peptide substrate and ATP for up to 1 h. Thirty minutes after adding Eu-labeled anti-phosphopeptides Ab diluted in LANCE Detection Buffer, LANCE signals were measured with an EnVision multilabel reader (Perkin-Elmer).

AuroraB = AuroraB (Homo sapiens, UniProt Q96GD4); assay: Kinase assay (LANCE Ultra TR-FRET), AuroraB; assay type: biochemical
Method: as §1

human peripheral T cells = assay: IL-2 production by activated T cells (ELISA); assay type: cell-based; conditions: fold lower than tofacitinib
Method: Supplementary F igure 1. SKI -O-592 and - 703 s p a re TCR- mediated signaling in T cells
(A) The stru cture of SKI-O-703. (B-D) Human per ipheral T cells sorted fro m human peripheral blood mononuclear cells (B and D) and mouse primary T cells sorted from spleen (C ) wer e stimulated with 5 µ g/ml anti- CD3 and 2 µ g/ml anti- CD28 m Abs in the presence or absence of inhibitors as indicated. Af ter one hour (B) and 24 h ours (C and D) of culture, cells we re assaye d […]
by immunoblotting (B), FA C S ( C), and ELISA (D). […]
of Zap70 and its downstream target PLCγ1. It’s effect on the suppression of IL-2 production […]
Supplementary F igure 2. Gating strategy for FACS of spleen cells
Erythrocyte-d epleted mo use spleen cells w ere assayed by FACS. Whole live cells were gated as shown: plasma cells (C D19lo/- CD138hi), GC B cells (CD19+ CD138- GL-7h i FA S hi), follicular B cells (CD19+ CD43- CD23hi CD21-), marginal zone B cells (CD19+ C D43- CD21hi CD23lo ), and Tfh cells (CD4+ CXCR5+ PD-1hi).
Supplementary Figure 3. Differential susceptibility of short-lived and long-lived plasma […]
When spleen cells from NZB/W mice were assay ed by FACS as in Fig. 5, they were stained intracellularly with anti- Ki-67 mAb to distinguish Ki-67+ dividing cells from Ki-67- non-dividing cells among t h e CD138hi population. […]

mouse primary B cells [1] = assay: CP670-dilution proliferation assay, BCR crosslinking (anti-IgM) stimulated B cells; assay type: cell-based; conditions: 0.1–5 μM, CP670 dilution, 72 h
Method: (§2) Splenic CD19^+ B cells from C57BL/6 mice were sorted by MACS (Milteny Biotec), stained with 3 μM cell proliferation dye eFluor 670 (CP670; eBioscience), and cultured for 72 h in the presence of either 10 μg/ml LPS (Sigma Aldrich) or 5 μg/ml anti-mouse IgM (Jackson Immuno Research Laboratories), 10 μg/ml anti-CD40 mAb (Biolegend) and 10 ng/ml IL-4 (Peprotech), and assayed by FACS. To detect apoptotic cells, unstimulated cells were cultured for 24 h, stained with Annexin V and 7-aminoactinomycin D (7-AAD), and assayed by FACS.
(§3) Figure 2: in vitro effects of SKI-O -703 on the proliferation, survival, and differentiation of B cells. Mouse primary B cells were labeled with CP670, and stimulated with either anti-IgM mAb, CD40L and IL-4 (A) or LPS (B) for 72 h in the presence or absence of SKI-O-703 and tofacitinib at the indicated concentrations; they were then assayed by FACS. (C and D) Mouse primary B cells were cultured as in A and B for 24 h, stained with Annexin V and 7-AAD, and assayed by FACS. Representative FACS profiles and graphs displaying mean Annexin V-positivity are shown. (E) Human primary B cells were stimulated with CpG ODN plus IL-2 (to detect IgM and IgG) or CpG ODN 2006 plus IFN-α (to detect IL-6) in the presence or absence of inhibitors. The culture supernatants were assayed by ELISA. Graphs are expressed as % positivity relative to the controls (without inhibitor). […]

mouse primary B cells [2] = assay: Annexin V/7-AAD apoptosis assay in B cells; assay type: cell-based; conditions: 24 h, effect more potent with anti-IgM than LPS
Method: as §2, §3

Aqueous solubility = assay type: physicochemical; conditions: aqueous solution

Chain of AuroraB (Q96GD4 whole entry): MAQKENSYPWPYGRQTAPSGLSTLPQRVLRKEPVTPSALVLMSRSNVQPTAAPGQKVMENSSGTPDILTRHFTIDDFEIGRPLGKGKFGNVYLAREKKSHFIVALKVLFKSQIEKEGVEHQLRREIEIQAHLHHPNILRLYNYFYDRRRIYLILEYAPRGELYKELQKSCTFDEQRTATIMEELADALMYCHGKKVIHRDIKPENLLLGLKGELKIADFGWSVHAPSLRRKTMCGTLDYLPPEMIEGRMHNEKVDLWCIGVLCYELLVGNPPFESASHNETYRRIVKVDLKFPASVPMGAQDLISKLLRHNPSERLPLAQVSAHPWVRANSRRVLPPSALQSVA

Row | SMILES | Ratio to Syk (KOR) (KOR; IC50 ratio to Syk) | pIC50 (KOR; kinase activity, TR-FRET) | Ratio to Syk (AuroraB) (AuroraB; IC50 ratio to Syk) | pIC50 (AuroraB; kinase activity, TR-FRET) | Potency on IL-2 production relative to tofacitinib (IC50) (human peripheral T cells) | BCR crosslinking-induced proliferation (mouse primary B cells [1]) | Proportions of early and late apoptotic B cells (mouse primary B cells [2]) | Solubility (Aqueous solubility)
1 | Cc1nn(-c2ccnc(Nc3ccc4c(c3)c(C(=O)C3CC3)cn4C)n2)cc1CN1C[C@H](O)CO1 [SKI-O-592] | 111 | 6.16 | >1623 | < 5.00 | 25 fold | – | – | –
2 | CS(=O)(=O)O.CS(=O)(=O)O.Cc1nn(-c2ccnc(Nc3ccc4c(c3)c(C(=O)C3CC3)cn4C)n2)cc1CN1C[C@H](O)CO1 [SKI-O-703, (S)-cyclopropyl(5-((4-(4-((4-hydroxyisoxazolidin-2-yl)methyl)-3-methyl-1H-pyrazol-1-yl)pyrimidin-2-yl)amino)-1-methyl-1H-indol-3-yl)methanone dimesylate] | – | – | – | – | – | inhibited BCR crosslinking-induced proliferation in a concentration-dependent manner | increased the proportions of early and late apoptotic cells | soluble in aqueous solution
